# According to article PMC9934367, “Functional impact of subunit composition and compensation on Drosophila melanogaster nicotinic receptors–targets of neonicotinoids” (PLOS Genetics, 2023):
# System: D. melanogaster nAChRs
# Test: Comparison of agonist activity between nAChRs expressed in X. laevis oocytes (one-way ANOVA, Kruskal-Wallis)
# Assay type: cell-based
# Experimental: We minimised the use of X. laevis according to the UK Animals (Scientific Procedures) Act, 1986. […] Oocytes were defolliculated after collagenase treatment in Ca^2+-free standard oocyte saline (Ca^2+-free SOS). cRNAs of the nAChR subunits and co-factors mixed at a concentration of 0.1 mg/mL was injected into oocytes at a volume of 50 nL. Then the oocytes were incubated in the incubation medium (SOS supplemented with sodium pyruvate (Nacalai Tesque, #13058–12), penicillin-streptomycin (MilliporeSigma, #P4333), gentamycin (Nacalai Tesque, #16672–04), and 4% horse serum (Thermo Fisher Scientific, #26050–070) for 3−4 days prior to electrophysiology.
# Each defolliculated X. laevis oocyte was secured in a Perspex recording chamber and perfused with the standard oocyte saline (SOS) containing 0.5 μM atropine (SOSA) at a flow rate of 7−10 mL/min [48]. Two glass electrodes filled with 2 M KCl were impaled into each oocyte and the membrane potential was clamped at -100 mV. […] The peak amplitude of the response was measured and analysed by pCLAMP (Molecular Devices, USA).
# Y=Imax/1+10^(logEC50‐X)nH
# Where Y is the normalised response, X is log[ligand (M)], EC50 is the half maximal concentration (M), Imax is the maximum normalised response and nH is the Hill coefficient.
# Prism software was employed for the statistical analyses. […] One-way ANOVA was used to analyse the differences of the ligand agonist activity in terms of pEC50 on the various nAChRs expressed in X. laevis as well as data obtained with D. melanogaster larvae and adults.
# [1] = Dα1/Dα2/Dα3/Dβ1/Dβ2 vs. Dα1/Dα2/Dα4/Dβ1/Dβ2
# [2] = Dα1/Dα2/Dα3/Dβ1/Dβ2 vs. Dα1/Dα2/Dβ1/Dβ2/Dβ3
# [3] = Dα1/Dα2/Dα3/Dβ1/Dβ2 vs. Dα1/Dα3/Dα4/Dβ1/Dβ2
# [4] = Dα1/Dα2/Dα3/Dβ1/Dβ2 vs. Dα1/Dα3/Dβ1/Dβ2/Dβ3
# [5] = Dα1/Dα2/Dα3/Dβ1/Dβ2 vs. Dα2/Dα3/Dα4/Dβ1/Dβ2
# [6] = Dα1/Dα2/Dα3/Dβ1/Dβ2 vs. Dα2/Dα3/Dβ1/Dβ2/Dβ3
# [7] = Dα1/Dα2/Dα3/Dβ1 vs. Dα1/Dα2/Dα3/Dβ1/Dβ2
# [8] = Dα1/Dα2/Dα3/Dβ1 vs. Dα1/Dα2/Dβ1/Dβ2
# [9] = Dα1/Dα2/Dα3/Dβ1 vs. Dα1/Dα3/Dβ1/Dβ2
# [10] = Dα1/Dα2/Dα3/Dβ1 vs. Dα1/Dβ1/Dβ2
# [11] = Dα1/Dα2/Dα3/Dβ1 vs. Dα2/Dα3/Dβ1/Dβ2
# [12] = Dα1/Dα2/Dα3/Dβ1 vs. Dα3/Dβ1/Dβ2
# [13] = Dα1/Dα2/Dβ1/Dβ2 vs. Dα1/Dα2/Dα3/Dβ1/Dβ2
# [14] = Dα1/Dα2/Dβ1/Dβ2 vs. Dα2/Dα3/Dβ1/Dβ2
# [15] = Dα1/Dα2/Dβ1 vs. Dα1/Dα2/Dα3/Dβ1
# [16] = Dα1/Dα2/Dβ1 vs. Dα1/Dα2/Dα3/Dβ1/Dβ2
# [17] = Dα1/Dα2/Dβ1 vs. Dα1/Dα2/Dβ1/Dβ2
# [18] = Dα1/Dα2/Dβ1 vs. Dα1/Dα3/Dβ1/Dβ2
# [19] = Dα1/Dα2/Dβ1 vs. Dα2/Dα3/Dβ1/Dβ2
# [20] = Dα1/Dα3/Dβ1/Dβ2 vs. Dα1/Dα2/Dα3/Dβ1/Dβ2
# [21] = Dα1/Dα3/Dβ1/Dβ2 vs. Dα1/Dα2/Dβ1/Dβ2
# [22] = Dα1/Dα3/Dβ1/Dβ2 vs. Dα2/Dα3/Dβ1/Dβ2
# [23] = Dα1/Dα3/Dβ1 vs. Dα1/Dα2/Dα3/Dβ1
# [24] = Dα1/Dα3/Dβ1 vs. Dα1/Dα2/Dα3/Dβ1/Dβ2
# [25] = Dα1/Dα3/Dβ1 vs. Dα1/Dα2/Dβ1/Dβ2
# [26] = Dα1/Dα3/Dβ1 vs. Dα1/Dα3/Dβ1/Dβ2
# [27] = Dα1/Dα3/Dβ1 vs. Dα2/Dα3/Dβ1/Dβ2
# [28] = Dα1/Dβ1/Dβ2 vs. Dα1/Dα2/Dα3/Dβ1/Dβ2
# [29] = Dα1/Dβ1/Dβ2 vs. Dα1/Dα2/Dβ1/Dβ2
structure (smiles),measurement,setting,value
"CN/C(=N\[N+](=O)[O-])NCc1cnc(Cl)s1 [Clothianidin, clothianidin]","Difference of Imax values, nAChRs compared",[1],-0.189
same,"Difference of pEC50 values, nAChRs compared",[1],-0.13
same,"Difference of Imax values, nAChRs compared",[2],-0.162
same,"Difference of pEC50 values, nAChRs compared",[2],0.92
same,"Difference of Imax values, nAChRs compared",[3],0.388
same,"Difference of pEC50 values, nAChRs compared",[3],-0.35
same,"Difference of Imax values, nAChRs compared",[4],0.281
same,"Difference of pEC50 values, nAChRs compared",[4],-1.01
same,"Difference of Imax values, nAChRs compared",[5],-0.100
same,"Difference of pEC50 values, nAChRs compared",[5],-0.52
same,"Difference of Imax values, nAChRs compared",[6],0.117
same,"Difference of pEC50 values, nAChRs compared",[6],-0.87
same,"Difference of Imax values, nAChRs compared",[7],0.005
same,"Difference of pEC50 values, nAChRs compared",[7],-0.04
same,"Difference of Imax values, nAChRs compared",[8],0.017
same,"Difference of pEC50 values, nAChRs compared",[8],0.24
same,"Difference of Imax values, nAChRs compared",[9],0.133
same,"Difference of pEC50 values, nAChRs compared",[9],-0.85
same,"Difference of Imax values, nAChRs compared",[10],0.457
same,"Difference of pEC50 values, nAChRs compared",[10],-0.09
same,"Difference of Imax values, nAChRs compared",[11],0.183
same,"Difference of pEC50 values, nAChRs compared",[11],-0.74
same,"Difference of Imax values, nAChRs compared",[12],0.325
same,"Difference of pEC50 values, nAChRs compared",[12],-0.91
same,"Difference of Imax values, nAChRs compared",[13],-0.012
same,"Difference of pEC50 values, nAChRs compared",[13],-0.28
same,"Difference of Imax values, nAChRs compared",[14],0.166
same,"Difference of pEC50 values, nAChRs compared",[14],-0.98
same,"Difference of Imax values, nAChRs compared",[15],-0.118
same,"Difference of pEC50 values, nAChRs compared",[15],-1.48
same,"Difference of Imax values, nAChRs compared",[16],-0.113
same,"Difference of pEC50 values, nAChRs compared",[16],-1.52
same,"Difference of Imax values, nAChRs compared",[17],-0.101
same,"Difference of pEC50 values, nAChRs compared",[17],-1.24
same,"Difference of Imax values, nAChRs compared",[18],0.015
same,"Difference of pEC50 values, nAChRs compared",[18],-2.33
same,"Difference of Imax values, nAChRs compared",Dα1/Dα2/Dβ1 vs. Dα1/Dβ1/Dβ2,0.339
same,"Difference of pEC50 values, nAChRs compared",Dα1/Dα2/Dβ1 vs. Dα1/Dβ1/Dβ2,-1.57
same,"Difference of Imax values, nAChRs compared",Dα1/Dα2/Dβ1 vs. Dα2/Dα3/Dβ1,-0.183
same,"Difference of pEC50 values, nAChRs compared",Dα1/Dα2/Dβ1 vs. Dα2/Dα3/Dβ1,-1.74
same,"Difference of Imax values, nAChRs compared",[19],0.065
same,"Difference of pEC50 values, nAChRs compared",[19],-2.22
same,"Difference of Imax values, nAChRs compared",Dα1/Dα2/Dβ1 vs. Dα3/Dβ1/Dβ2,0.207
same,"Difference of pEC50 values, nAChRs compared",Dα1/Dα2/Dβ1 vs. Dα3/Dβ1/Dβ2,-2.39
same,"Difference of Imax values, nAChRs compared",[20],-0.128
same,"Difference of pEC50 values, nAChRs compared",[20],0.81
same,"Difference of Imax values, nAChRs compared",[21],-0.116
same,"Difference of pEC50 values, nAChRs compared",[21],1.09
same,"Difference of Imax values, nAChRs compared",[22],0.050
same,"Difference of pEC50 values, nAChRs compared",[22],0.11
same,"Difference of Imax values, nAChRs compared",[23],-0.190
same,"Difference of pEC50 values, nAChRs compared",[23],0.65
same,"Difference of Imax values, nAChRs compared",[24],-0.185
same,"Difference of pEC50 values, nAChRs compared",[24],0.61
same,"Difference of Imax values, nAChRs compared",Dα1/Dα3/Dβ1 vs. Dα1/Dα2/Dβ1,-0.072
same,"Difference of pEC50 values, nAChRs compared",Dα1/Dα3/Dβ1 vs. Dα1/Dα2/Dβ1,2.13
same,"Difference of Imax values, nAChRs compared",[25],-0.173
same,"Difference of pEC50 values, nAChRs compared",[25],0.89
same,"Difference of Imax values, nAChRs compared",[26],-0.057
same,"Difference of pEC50 values, nAChRs compared",[26],-0.20
same,"Difference of Imax values, nAChRs compared",Dα1/Dα3/Dβ1 vs. Dα1/Dβ1/Dβ2,0.267
same,"Difference of pEC50 values, nAChRs compared",Dα1/Dα3/Dβ1 vs. Dα1/Dβ1/Dβ2,0.56
same,"Difference of Imax values, nAChRs compared",Dα1/Dα3/Dβ1 vs. Dα2/Dα3/Dβ1,-0.255
same,"Difference of pEC50 values, nAChRs compared",Dα1/Dα3/Dβ1 vs. Dα2/Dα3/Dβ1,0.39
same,"Difference of Imax values, nAChRs compared",[27],-0.007
same,"Difference of pEC50 values, nAChRs compared",[27],-0.09
same,"Difference of Imax values, nAChRs compared",Dα1/Dα3/Dβ1 vs. Dα3/Dβ1/Dβ2,0.135
same,"Difference of pEC50 values, nAChRs compared",Dα1/Dα3/Dβ1 vs. Dα3/Dβ1/Dβ2,-0.26
same,"Difference of Imax values, nAChRs compared",[28],-0.452
same,"Difference of pEC50 values, nAChRs compared",[28],0.05
same,"Difference of Imax values, nAChRs compared",[29],-0.440
same,"Difference of pEC50 values, nAChRs compared",[29],0.33
